Source: patent US5989596A, “Compositions comprising a depigmenting agent consisting of sulfites and metabisulfites and plant extracts for use in inhibiting melanogenesis or for depigmenting” (Coletica, priority 1997, dated 1999)

Tests used:
[1] = Organoleptic (smell) and stability tests on storage, 4 weeks at 45° C.; assay type: physicochemical; conditions: pH 6.5, 4 weeks at 45° C.
Method: Organoleptic tests have even been carried out on 5% sodium sulfite solutions or with 10% of a mulberry extract or 10 or with 20% with a lemon extract. These tests were led over 4 weeks at 45° C. at pH 5.5 and 6.5.
Also, organoleptic tests are then carried out on 5% sodium metabisulfite solutions with or without either 20% of a saxifrage extract or 10% of a grapefruit extract. These tests were led over 4 weeks at 45° C. at pH 5.5 and 6.5.
Organoleptic tests were also carried out on 5% potassium sulfite solutions with or without either 20% of a grape extract, or 10% of an oughon extract. It is to be noted that oughon is also called Scutelaria. These tests were led over 4 weeks at 45° C. at pH 5.5 and 6.5.
Organoleptic tests are then carried out on 5% potassium metabisulfite solutions with or without either 10% of a saxifrage extract, or 5% of an oughon extract +10% of a grapefruit extract. These tests were also led over 4 weeks at 45° C. at pH 5.5 and 6.5.

isolated tyrosinase = assay: In vitro test of the inhibition of isolated tyrosinase (rate of dopachrome formation from L-Dopa, 475 nm); assay type: biochemical
Source text: It is known that tyrosinase is capable of catalyzing the formation of L-Dopaquinone and then dopachrome from L-Dopa. Now, dopachrome is a colored compound whose appearance is possible to follow by UV visible spectrophotometry at 475 nm. The use of an active capable of modifying the enzymatic activity manifests itself by a variation of the rate of appearance of this colored molecule.
The ratio of the rates of formation of dopachrome enable precisely determining the activations or the inhibitions obtained with the different molecules tested.
The anti-tyrosinase activity was measured, for various concentrations of this composition, by simple dilution with demineralized water.

[2] = target: T1, endogenous tyrosinase in melanocytes of human skin explants (Homo sapiens, UniProt P14679); assay: Ex vivo tissue model on human skin explant, histochemical L-DOPA reaction (anti-tyrosinase activity); assay type: cell-based; conditions: 0.55% (w/v), with L-DOPA 0.05 M, 15 hours at 37° C.
T1 construct: oxidation of exogenous L-DOPA by endogenous tyrosinase; from tissue; host or cells: human abdominal skin explants from plastic surgery (melanocytes)
T1 sequence (P14679 19-529): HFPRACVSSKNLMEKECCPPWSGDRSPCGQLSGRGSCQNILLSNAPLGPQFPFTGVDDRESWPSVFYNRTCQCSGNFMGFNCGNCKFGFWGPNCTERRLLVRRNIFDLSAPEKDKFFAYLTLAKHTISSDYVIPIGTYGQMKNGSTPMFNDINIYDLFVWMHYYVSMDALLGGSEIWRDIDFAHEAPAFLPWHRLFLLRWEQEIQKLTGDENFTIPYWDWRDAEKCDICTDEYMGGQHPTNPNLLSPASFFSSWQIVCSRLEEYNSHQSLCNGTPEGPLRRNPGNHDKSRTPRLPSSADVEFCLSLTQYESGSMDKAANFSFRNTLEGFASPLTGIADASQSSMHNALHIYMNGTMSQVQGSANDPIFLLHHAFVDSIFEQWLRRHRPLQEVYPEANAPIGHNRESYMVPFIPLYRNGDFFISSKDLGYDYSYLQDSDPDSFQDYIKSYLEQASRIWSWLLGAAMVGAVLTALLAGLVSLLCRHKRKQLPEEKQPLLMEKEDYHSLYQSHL
Method: The oxidation of L-Dopa by the tyrosinase produces, in the melanocytes, a black pigment precursor of melanin which is easily detectable by optical microscopy with white light. The tyrosinase activity is determined by the intensity of the calorimetric reaction obtained.
A positive control and a negative control are also carried out in parallel.
The various products in the study are incubated in the presence of L-DOPA (0.05 M) for 15 hours at 37° C.
After fixing and inclusion in paraffin, the sections are colored with hemalun/eosin/saffron and with cresyl violet, they are then observed in white light by optical microscopy.
The tyrosinase activity is determined by the intensity of the calorimetric reaction obtained.

human melanocytes = conditions: J. Soc. Cosmeti. Chem. 42, 361-368 (1991); cited from earlier work

SMILES	smell (organoleptic test) [1]	tyrosinase inhibition (in words) (isolated tyrosinase; concentration 0.01%)	Results (inhibition) of tyrosinase (isolated tyrosinase; concentration level 0.1%) [%]	Results (inhibition) of tyrosinase (isolated tyrosinase; concentration level 1%) [%]	Results (inhibition) of tyrosinase (isolated tyrosinase; concentration level 10%) [%]	Results (inhibition) of tyrosinase (isolated tyrosinase; concentration level 0.01%)	inhibition of the formation of melanic pigments [2]	IC50 (concentration for which half of the cells placed in culture are no longer living) (human melanocytes) [µg/mL]
O=S([O-])S(=O)(=O)[O-].[Na+].[Na+] [sodium metabisulfite]	very strong smell	almost total	100	100	100	–	–	–
O=S([O-])[O-].[Na+].[Na+] [sodium sulfite]	–	–	100	100	100	93.7%	–	–
O=S([O-])[O-].[K+].[K+] [potassium sulfite]	very strong smell	–	98.10	92.7	100	more than 80%	–	–
Oc1ccc(O)cc1 [hydroquinone]	–	–	–	–	–	–	totally inhibits	–
O=C1O[C@H]([C@@H](O)CO)C(O)=C1O [ascorbic acid]	–	–	–	–	–	–	–	880
O=S([O-])S(=O)(=O)[O-].[K+].[K+] [potassium metabisulfite]	–	–	93.63	100	100	more than 90%	–	–
